The results in this text go back to US11746085B2, “Triphenylsulfonium salt compound, and uses thereof” (Changzhou Tronly Advanced Electronic Materials Co., Ltd., priority 2018, dated 2023).

The nature of the series: Dissolution performance test: solubility in 3-ethyl-3-hydroxymethyl oxetane monomer. The series is classed as physicochemical. The settings on record: maximum number of grams dissolved in 100 g 3-ethyl-3-hydroxymethyl oxetane monomer at 20° C. The protocol: The solubility in 3-ethyl-3-hydroxymethyl oxetane monomer was tested for Compound A-1 to A-38 and C-1 to C-25, and comparative compounds B-1 and B-2 as well as D-1 and D-2 in the present invention, calculated based on the maximum number of grams dissolved in 100 g solvent at 20° C.

Each structure is given as a SMILES string.

For the setting “Table 4”, `Cc1ccc([S+](c2ccc(C)c(F)c2)c2ccc3c(c2)sc2cc([S+](c4ccc(C)c(F)c4)c4ccc(C)c(F)c4)ccc23)cc1F` [Compound C-24] came in with a Solubility of 23.5 g. Consider `Cc1ccc([S+](c2ccc(OCCO)cc2)c2ccc(C)c(F)c2)cc1F` [Compound A-9], for which the Solubility (Table 3) stood at 24.3 g. `Cc1ccc([S+](c2ccc(/C=C/c3ccc([S+](c4ccc(C)c(F)c4)c4ccc(C)c(F)c4)cc3)cc2)c2ccc(C)c(F)c2)cc1F` [Compound C-7] came in with a Solubility (Table 4) of 22.4 g. For the setting “Table 3”, `Fc1cccc([S+](c2ccccc2)c2ccccc2)c1` [Compound B-1, reference compound] had a Solubility of 12.1 g. Turning to `CCc1ccc([S+](c2ccc(OCCO)cc2)c2ccc(CC)c([N+](=O)[O-])c2)cc1[N+](=O)[O-]` [Compound A-32], the Solubility (Table 3) worked out at 28.2 g. `COc1ccc([S+](c2ccc(C)c(F)c2)c2ccc(C)c(F)c2)cc1` [Compound A-1]: the Solubility (Table 3) is 25.7 g.

`COc1ccc([S+](c2ccccc2)c2ccc(Sc3ccc([S+](c4ccccc4)c4ccc(OC)c(F)c4)cc3)cc2)cc1F` (centres unmarked) [Compound C-18]: where the note is “Table 4”, the Solubility is given as 20.7 g. As for `CC(=O)c1ccc([S+](c2ccccc2)c2ccc(C)c(C#N)c2)cc1` (centres unmarked) [Compound A-7], the Solubility (Table 3) is 20.6 g. The compound `Cc1ccc([S+](c2ccc(Oc3ccc([S+](c4ccc(C)c(F)c4)c4ccc(C)c(F)c4)cc3)cc2)c2ccc(C)c(F)c2)cc1F` [Compound C-8] came in with a Solubility (Table 4) of 23.7 g.

`Cc1ccc([S+](c2ccc(Sc3ccc([S+](c4ccc(C)c(C(F)(F)F)c4)c4ccc(C)c(C(F)(F)F)c4)cc3)cc2)c2ccc(C)c(C(F)(F)F)c2)cc1C(F)(F)F` [Compound C-2]: the Solubility (Table 4) is 24.3 g. In the case of `Cc1ccc([S+](c2ccccc2)c2ccc(Sc3ccc([S+](c4ccccc4)c4ccc(C)c(F)c4)cc3)cc2)cc1F` (centres unmarked) [Compound C-17], the Solubility (Table 4) was determined as 21.5 g. `CCc1ccc([S+](c2ccc(OC)cc2)c2ccc(CC)c(C(F)(F)F)c2)cc1C(F)(F)F` [Compound A-31]: the Solubility (Table 3) worked out at 27.6 g. Regarding `Cc1ccc([S+](c2ccccc2)c2ccccc2)cc1F` [Compound A-4], the Solubility (Table 3) came out at 19.5 g. With `Cc1ccc([S+](c2ccc(C)c(F)c2)c2ccc3c(c2)Cc2ccccc2-3)cc1F` [Compound A-22], where the note is “Table 3”, the Solubility stood at 22.3 g.

As for `Fc1ccc([S+](c2ccccc2)c2ccc(Sc3ccccc3)cc2)cc1F` (centres unmarked) [Compound A-20], the Solubility (Table 3) is given as 19.8 g. On to `Fc1cc([S+](c2ccc(Sc3ccc([S+](c4ccc(Cc5ccccc5)c(F)c4)c4ccc(Cc5ccccc5)c(F)c4)cc3)cc2)c2ccc(Cc3ccccc3)c(F)c2)ccc1Cc1ccccc1` [Compound C-16], for which the Solubility (Table 4) is on record as 24.4 g. `Cc1ccc([S+](c2ccc(C)c(C#N)c2)c2ccc(C)c(C#N)c2)cc1C` [Compound A-18]: for the setting “Table 3”, the Solubility is 23.2 g. Compound `Cc1ccc([S+](c2ccc(Sc3ccc([S+](c4ccc(C)c(C#N)c4)c4ccc(C)c(C#N)c4)cc3)cc2)c2ccc(C)c(C#N)c2)cc1C#N` [Compound C-4] had a Solubility (Table 4) of 23.1 g. On the same count and under the same terms, with `Cc1ccc([S+](c2ccc(Sc3ccc([S+](c4ccc(C)c([N+](=O)[O-])c4)c4ccc(C)c([N+](=O)[O-])c4)cc3)cc2)c2ccc(C)c([N+](=O)[O-])c2)cc1[N+](=O)[O-]` [Compound C-3] the figure was 23.4 g; with `Cc1ccc([S+](c2ccc(Sc3ccc([S+](c4ccc(C)c(F)c4)c4ccc(C)c(F)c4)cc3C)c(C)c2)c2ccc(C)c(F)c2)cc1F` [Compound C-12], 25.3 g. Under “Table 3”, `Cc1ccc([S+](c2ccccc2)c2ccc(/C=C/c3ccccc3)cc2)cc1F` (centres unmarked) [Compound A-38] showed a Solubility of 23.5 g.

In turn, `Cc1ccc([S+](c2ccc(-c3ccccc3)cc2)c2ccc(C)c(F)c2)cc1F` [Compound A-15] came in with a Solubility (Table 3) of 23.4 g.

Take `Cc1ccc([S+](c2ccc(C)c(F)c2)c2ccc(C)c(F)c2)cc1` [Compound A-11]: the Solubility (Table 3) turned out to be 21.6 g. Consider `Cc1ccc([S+](c2ccc(/C=C/c3ccccc3)cc2)c2ccc(C)c(F)c2)cc1F` [Compound A-37], for which, under “Table 3”, the Solubility is recorded as 22.4 g.

For `Fc1cccc([S+](c2ccccc2)c2ccc(Sc3ccc([S+](c4ccccc4)c4cccc(F)c4)cc3)cc2)c1` [Compound D-1, reference compound], the Solubility (Table 4) amounted to 11.5 g.

On to `Cc1ccc([S+](c2ccc(Oc3ccccc3)cc2)c2ccc(C)c(F)c2)cc1F` [Compound A-13], for which the Solubility (Table 3) stood at 23.8 g.

`CCc1ccc([S+](c2ccc(Sc3ccc([S+](c4ccc(CC)c(F)c4)c4ccc(CC)c(F)c4)cc3)cc2)c2ccc(CC)c(F)c2)cc1F` [Compound C-5]: the Solubility (Table 4) stood at 25.1 g.

Take `Cc1ccc([S+](c2ccccc2)c2ccccc2)cc1C(F)(F)F` [Compound A-6]: the Solubility (Table 3) is recorded as 19.2 g.

`Cc1ccc([S+](c2ccc(Sc3ccc([S+](c4ccc(C)c(F)c4)c4ccc(C)c(F)c4)cc3)cc2)c2ccc(C)c(F)c2)cc1F` [Compound C-1] gave a Solubility (Table 4) of 24.4 g. `Cc1ccc(-[s+]2c3ccccc3c(=O)c3cc(C(C)C)ccc32)cc1F` (centres unmarked) [Compound A-2] had a Solubility (Table 3) of 23.5 g.

Turning to `COc1ccc([S+](c2ccc(C(C)=O)cc2)c2ccc(C(C)=O)cc2)cc1F` [Compound A-8], the Solubility (Table 3) turned out to be 23.4 g. `Cc1ccc([S+](c2ccc(Cc3ccc([S+](c4ccc(C)c([N+](=O)[O-])c4)c4ccc(C)c([N+](=O)[O-])c4)cc3)cc2)c2ccc(C)c([N+](=O)[O-])c2)cc1[N+](=O)[O-]` [Compound C-9] yielded a Solubility (Table 4) of 23.1 g.

Turning to `CC(C)c1ccc([S+](c2ccc(-c3ccc([S+](c4ccc(C(C)C)c(F)c4)c4ccc(C(C)C)c(F)c4)cc3)cc2)c2ccc(C(C)C)c(F)c2)cc1F` [Compound C-19], for the setting “Table 4”, the Solubility is 24.8 g. As to `Cc1ccc([S+](c2ccccc2)c2ccc(-c3ccccc3)cc2)cc1F` (centres unmarked) [Compound A-21], the Solubility (Table 3) was 20.1 g. In turn, `CC(=O)c1cc([SH](c2ccc(Sc3ccccc3)cc2)c2ccc(C)c(C(C)=O)c2)ccc1C` [Compound A-16] showed a Solubility (Table 3) of 22.6 g.
